Assay results from PubChem BioAssay (NCI).
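Where inhibition never reached the appropriate level, the endpoint shown equals the highest concentration tested. Otherwise, values were interpolated linearly from a five-concentration, 48-hour dose response in 96-well plates. At the GI50, growth is halved. The concentration for full growth arrest is given as TGI.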

Key:
Test in all cases: NCI-60 cell line screen, 48 h
[1] = tested on: MCF7 breast
[2] = tested on: NCI-H522 lung
[3] = tested on: SR leukemia
[4] = tested on: SF-295 CNS
[5] = tested on: U251 CNS
[6] = tested on: A498 renal
[7] = tested on: SNB-19 CNS
[8] = tested on: EKVX NSCLC
[9] = tested on: SF-268 CNS
[10] = tested on: 786-0 renal
[11] = tested on: SK-OV-3 ovarian
[12] = tested on: IGROV1 ovarian
[13] = tested on: TK-10 renal
[14] = tested on: RXF 393 renal
[15] = tested on: PC-3 prostate
[16] = tested on: K-562 leukemia
[17] = tested on: CCRF-CEM leukemia
[18] = tested on: HCT-116 colon
[19] = tested on: T-47D breast
[20] = tested on: HS 578T breast
[21] = tested on: HCT-15 colon
[22] = tested on: SK-MEL-2 melanoma
[23] = tested on: RPMI-8226 leukemia
[24] = tested on: MOLT-4 leukemia
[25] = tested on: SN12C renal
[26] = tested on: UACC-257 melanoma
[27] = tested on: ACHN renal
[28] = tested on: CAKI-1 renal
[29] = tested on: OVCAR-3 ovarian
[30] = tested on: M14 melanoma
[31] = tested on: MDA-MB-231 breast
[32] = tested on: LOX IMVI melanoma
[33] = tested on: KM12 colon
[34] = tested on: NCI-H226 lung
[35] = tested on: OVCAR-5 ovarian
[36] = tested on: NCI-H460 lung
[37] = tested on: COLO 205 colon
[38] = tested on: SW-620 colon
[39] = tested on: A549 NSCLC
[40] = tested on: MDA-MB-435
[41] = tested on: NCI-H23 lung
[42] = tested on: BT-549 breast
[43] = tested on: HCC-2998 colon
[44] = tested on: OVCAR-8 ovarian
[45] = tested on: UO-31 renal
[46] = tested on: UACC-62 melanoma
[47] = tested on: NCI/ADR-RES ovarian
[48] = tested on: SK-MEL-5 melanoma

Compound: Oc1ccc(O)c(-c2cn3c(n2)SCC3)c1
- GI50 [1]: 26.8 µM
- TGI [1]: > 100 µM
- GI50 [2]: 4.93 µM
- TGI [2]: > 100 µM
- GI50 [3]: 4.03 µM
- TGI [3]: 10.4 µM
- GI50 [4]: 14.8 µM
- TGI [4]: 38.7 µM
- GI50 [5]: 18.3 µM
- TGI [5]: 33.6 µM
- GI50 [6]: 20.9 µM
- TGI [6]: 75.7 µM
- GI50 [7]: 21.3 µM
- TGI [7]: 45.4 µM
- GI50 [8]: 19.5 µM
- TGI [8]: 37.3 µM
- GI50 [9]: 28.7 µM
- TGI [9]: > 100 µM
- GI50 [10]: 2.32 µM
- TGI [10]: 6.59 µM
- GI50 [11]: 12.5 µM
- TGI [11]: 40.6 µM
- GI50 [12]: 39.9 µM
- TGI [12]: > 100 µM
- GI50 [13]: 21.3 µM
- TGI [13]: 37.3 µM
- GI50 [14]: 18.4 µM
- TGI [14]: 36.2 µM
- GI50 [15]: 19.1 µM
- TGI [15]: 38 µM
- GI50 [16]: 7.24 µM
- TGI [16]: > 100 µM
- GI50 [17]: 5.18 µM
- TGI [17]: > 100 µM
- GI50 [18]: 3.07 µM
- TGI [18]: 7.81 µM
- GI50 [19]: 17.5 µM
- TGI [19]: 42.2 µM
- GI50 [20]: 18.6 µM
- TGI [20]: 90.7 µM
- GI50 [21]: 19.1 µM
- TGI [21]: 36.9 µM
- GI50 [22]: 78.8 µM
- TGI [22]: > 100 µM
- GI50 [23]: 4.08 µM
- TGI [23]: > 100 µM
- GI50 [24]: 4.37 µM
- TGI [24]: 9.55 µM
- GI50 [25]: 13.9 µM
- TGI [25]: 29.2 µM
- GI50 [26]: 25.5 µM
- TGI [26]: 55.8 µM
- GI50 [27]: 20.4 µM
- TGI [27]: 34.7 µM
- GI50 [28]: 2.47 µM
- TGI [28]: 5.57 µM
- GI50 [29]: 9.36 µM
- TGI [29]: 28.1 µM
- GI50 [30]: 15.5 µM
- TGI [30]: 31.3 µM
- GI50 [31]: 11.7 µM
- TGI [31]: 26.5 µM
- GI50 [32]: 17.5 µM
- TGI [32]: 31.5 µM
- GI50 [33]: 16.9 µM
- TGI [33]: 38.2 µM
- GI50 [34]: 6.85 µM
- TGI [34]: 28.6 µM
- GI50 [35]: 17.5 µM
- TGI [35]: 33.3 µM
- GI50 [36]: 60.9 µM
- TGI [36]: > 100 µM
- GI50 [37]: 17 µM
- TGI [37]: 37.8 µM
- GI50 [38]: 3.19 µM
- TGI [38]: 8.17 µM
- GI50 [39]: 47.5 µM
- TGI [39]: > 100 µM
- GI50 [40]: 15.8 µM
- TGI [40]: 35.2 µM
- GI50 [41]: 24.4 µM
- TGI [41]: 73.4 µM
- GI50 [42]: 11.8 µM
- TGI [42]: 25.7 µM
- GI50 [43]: 19.6 µM
- TGI [43]: 36.2 µM
- GI50 [44]: 19.7 µM
- TGI [44]: 52.1 µM
- GI50 [45]: 20.7 µM
- TGI [45]: > 100 µM
- GI50 [46]: 11.2 µM
- TGI [46]: 24.7 µM
- GI50 [47]: 17.2 µM
- TGI [47]: 39.1 µM
- GI50 [48]: 16.9 µM
- TGI [48]: 33 µM
